According to paper PMC6357218 (Molecular Therapy Oncolytics, 2018):

Biological target: wild-type (WT) FKBP12 (in iRC9) (Homo sapiens, UniProt P62942)
Assay: Cross-activation of iRC9 apoptosis by high rimiducid in transfected HEK293 cells
Format: cell-based

Sequence of wild-type (WT) FKBP12 (in iRC9) (P62942 2-108): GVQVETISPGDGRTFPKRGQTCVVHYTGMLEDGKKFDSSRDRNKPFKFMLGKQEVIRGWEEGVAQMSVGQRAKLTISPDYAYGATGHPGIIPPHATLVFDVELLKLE

CC[C@H](C(=O)N1CCCC[C@H]1C(=O)O[C@H](CCc1ccc(OC)c(OC)c1)c1cccc(OCC(=O)NCCNC(=O)COc2cccc([C@@H](CCc3ccc(OC)c(OC)c3)OC(=O)[C@@H]3CCCCN3C(=O)[C@@H](CC)c3cc(OC)c(OC)c(OC)c3)c2)c1)c1cc(OC)c(OC)c(OC)c1 [Rim, rimiducid]
Cross-activation of iRC9 apoptosis by high rimiducid in transfected HEK293 cells: > 100 nM
